Active and inactive are the calls of the source. The rule behind the calls is not given here.
Assays:
[1] = target: Tumor necrosis factor (Homo sapiens) (UniProt P01375); test: Inhibition of TNFalpha (unknown origin)-induced NF-kappaB activation in mouse NIH/3T3 cells assessed as inhibition of NF-kappaB binding to DNA at 20 uM after 6 hrs by luciferase reporter gene assay; assay type: cell-based; settings: NIH3T3
NIH3T3 = test: Cytotoxicity against mouse NIH/3T3 cells assessed as growth inhibition after 24 hrs by MTT assay; assay type: cell-based
Mus musculus [2] = test: Antiinflammatory activity in ICR mouse assessed as inhibition of lambda-carrageenan-induced paw edema at 15 to 30 mg/kg, ip administered 2 hrs prior to carrageenan challenge measured after 6 to 18 hrs; assay type: functional, organism-based
Mus musculus [3] = test: Antiinflammatory activity in ICR mouse assessed as inhibition of lambda-carrageenan-induced paw edema at 10 mg/kg, ip administered 2 hrs prior to carrageenan challenge measured after 2 to 18 hrs; assay type: functional, organism-based; parameters: dose 10 mg/kg
[4] = Mus musculus, NIH3T3, 24 h, read-out: IC50

Tumor necrosis factor (Homo sapiens), sequence (P01375 whole entry): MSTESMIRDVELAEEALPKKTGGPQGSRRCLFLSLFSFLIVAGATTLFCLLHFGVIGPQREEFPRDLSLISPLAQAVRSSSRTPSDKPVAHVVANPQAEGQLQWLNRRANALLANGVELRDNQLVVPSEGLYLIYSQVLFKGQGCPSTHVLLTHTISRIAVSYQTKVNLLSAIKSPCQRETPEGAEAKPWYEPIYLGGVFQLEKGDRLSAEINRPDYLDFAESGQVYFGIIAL

With `COC(=O)[C@H]1C(c2cccc(Cl)c2)=NO[C@@H]1c1cc(OC)c(O)c2c1C[C@@H]1[C@@H]3C=C(OC)C(=O)C[C@]23CCN1C` the inhibition [1] was “Active” and the IC50 (NIH3T3; [4]) was 71.3 µM.

`CCCCOC(=O)/C=C/c1cc(OC)c(O)c2c1C[C@@H]1[C@@H]3C=C(OC)C(=O)C[C@]23CCN1C` was tested, and the inhibition [1] was “Active” and the IC50 (NIH3T3; [4]) was 80 µM.

With `COC1=C[C@@H]2[C@@H]3Cc4ccc(OC)c(O)c4[C@]2(CCN3C)CC1=O` [SINOMENINE] the inhibition [1] was “inactive” and the IC50 (NIH3T3; [4]) was over 100 µM.

Molecule `CCOC(=O)/C=C/c1cc(OC)c(O)c2c1C[C@@H]1[C@@H]3C=C(OC)C(=O)C[C@]23CCN1C` has an IC50 (NIH3T3; [4]) of over 100 µM.

`COC(=O)[C@H]1C(c2ccc(Br)cc2)=NO[C@@H]1c1cc(OC)c(O)c2c1C[C@@H]1[C@@H]3C=C(OC)C(=O)C[C@]23CCN1C` was tested, and the inhibition [1] was “Active” and the IC50 (NIH3T3; [4]) was 55.7 µM.

For `CCCCC(CC)COC(=O)/C=C/c1cc(OC)c(O)c2c1C[C@@H]1[C@@H]3C=C(OC)C(=O)C[C@]23CCN1C` (some centres undefined), the IC50 (NIH3T3; [4]) was 4.8 µM.

For `COC(=O)[C@@H]1C(c2ccc(OC)cc2)=NO[C@H]1c1cc(OC)c(O)c2c1C[C@@H]1[C@@H]3C=C(OC)C(=O)C[C@]23CCN1C`, the inhibition [1] was “inactive” and the IC50 (NIH3T3; [4]) was 83.9 µM.

Molecule `COC(=O)/C(C)=C/c1cc(OC)c(O)c2c1C[C@@H]1[C@@H]3C=C(OC)C(=O)C[C@]23CCN1C` has an IC50 (NIH3T3; [4]) of over 100 µM.

`COC(=O)[C@@H]1C(c2cccc(Cl)c2)=NO[C@H]1c1cc(OC)c(O)c2c1C[C@@H]1[C@@H]3C=C(OC)C(=O)C[C@]23CCN1C` was tested, and the inhibition [1] was “inactive” and the IC50 (NIH3T3; [4]) was 78.3 µM.

`COC(=O)[C@@H]1C(c2ccc(C)cc2)=NO[C@H]1c1cc(OC)c(O)c2c1C[C@@H]1[C@@H]3C=C(OC)C(=O)C[C@]23CCN1C` was tested, and the inhibition [1] was “Active” and the IC50 (NIH3T3; [4]) was 78 µM.

Molecule `COC1=C[C@H]2[C@H]3Cc4c(/C=C/C(=O)OCC(C)C)cc(OC)c(O)c4[C@@]2(CCN3C)CC1=O` has an IC50 (NIH3T3; [4]) of over 100 µM.

For `COC(=O)[C@@H]1C(c2ccc(Cl)cc2)=NO[C@H]1c1cc(OC)c(O)c2c1C[C@@H]1[C@@H]3C=C(OC)C(=O)C[C@]23CCN1C`, the inhibition [1] was “inactive” and the IC50 (NIH3T3; [4]) was 75.1 µM.

`COC(=O)[C@H]1C(c2ccccc2)=NO[C@@H]1c1cc(OC)c(O)c2c1C[C@@H]1[C@@H]3C=C(OC)C(=O)C[C@]23CCN1C` was tested, and the inhibition [1] was “Active” and the IC50 (NIH3T3; [4]) was over 100 µM.

With `COC(=O)[C@H]1C(c2cccc(C)c2)=NO[C@@H]1c1cc(OC)c(O)c2c1C[C@@H]1[C@@H]3C=C(OC)C(=O)C[C@]23CCN1C` the inhibition [1] was “Active” and the IC50 (NIH3T3; [4]) was over 100 µM.

For `COC(=O)[C@@H]1C(c2cccc(C)c2)=NO[C@H]1c1cc(OC)c(O)c2c1C[C@@H]1[C@@H]3C=C(OC)C(=O)C[C@]23CCN1C`, the inhibition [1] was “Active” and the IC50 (NIH3T3; [4]) was 78.3 µM.

`COC(=O)[C@@H]1C(c2ccc(Br)cc2)=NO[C@H]1c1cc(OC)c(O)c2c1C[C@@H]1[C@@H]3C=C(OC)C(=O)C[C@]23CCN1C` was tested, and the inhibition [1] was “inactive” and the IC50 (NIH3T3; [4]) was 53.1 µM.

`COCCOC(=O)/C=C/c1cc(OC)c(O)c2c1C[C@@H]1[C@@H]3C=C(OC)C(=O)C[C@]23CCN1C` was tested, and the IC50 (NIH3T3; [4]) was over 100 µM.

Work on `COC(=O)/C=C/c1cc(OC)c(O)c2c1C[C@@H]1[C@@H]3C=C(OC)C(=O)C[C@]23CCN1C` yielded an IC50 (NIH3T3; [4]) of over 100 µM.

With `COC(=O)[C@@H]1C(c2ccccc2)=NO[C@H]1c1cc(OC)c(O)c2c1C[C@@H]1[C@@H]3C=C(OC)C(=O)C[C@]23CCN1C` the inhibition [1] was “inactive” and the IC50 (NIH3T3; [4]) was over 100 µM.

In the case of `COC1=C[C@H]2[C@H]3Cc4c(/C=C/C(=O)OC5CCCCC5)cc(OC)c(O)c4[C@@]2(CCN3C)CC1=O`, the IC50 (NIH3T3; nih3t3) is reported as “ND(Insoluble)”.

`COC(=O)[C@H]1C(c2ccc(OC)cc2)=NO[C@@H]1c1cc(OC)c(O)c2c1C[C@@H]1[C@@H]3C=C(OC)C(=O)C[C@]23CCN1C` was tested, and the inhibition [1] was “Active” and the IC50 (NIH3T3; [4]) was over 100 µM.

For `COC(=O)[C@H]1C(c2ccc(C)cc2)=NO[C@@H]1c1cc(OC)c(O)c2c1C[C@@H]1[C@@H]3C=C(OC)C(=O)C[C@]23CCN1C`, the inhibition [1] was “Active” and the IC50 (NIH3T3; [4]) was 80.7 µM.

`COC(=O)[C@H]1C(c2ccc(Cl)cc2)=NO[C@@H]1c1cc(OC)c(O)c2c1C[C@@H]1[C@@H]3C=C(OC)C(=O)C[C@]23CCN1C` was tested, and the inhibition [1] was “Active” and the IC50 (NIH3T3; [4]) was 66.7 µM.

`CCCCCCOC(=O)/C=C/c1cc(OC)c(O)c2c1C[C@@H]1[C@@H]3C=C(OC)C(=O)C[C@]23CCN1C` was tested, and the inhibition (Mus musculus [2]) was “Active”, the inhibition [1] was “Active” and the IC50 (NIH3T3; [4]) was 38.9 µM.

`COC1=C[C@H]2[C@H]3Cc4c(/C=C/C(=O)OC(C)(C)C)cc(OC)c(O)c4[C@@]2(CCN3C)CC1=O` gave an IC50 (NIH3T3; [4]) of over 100 µM.

For `COc1ccc2c(c1)c(CC(=O)O)c(C)n2C(=O)c1ccc(Cl)cc1`, the inhibition (Mus musculus [3]) was “Active”.

From ChEMBL document CHEMBL2331461, “Microfluidics assisted synthesis and bioevaluation of sinomenine derivatives as antiinflammatory agents” (Eur J Med Chem, 2013)
